Data: EP4596574A1, “GLP-1/GCG/GIP TRIPLE-RECEPTOR AGONIST AND USE THEREOF” (Sunshine Lake Pharma Co., Ltd., priority 2022, dated 2024)
Marks after values point to notes of the source that are not given here.

Key:
[1] = Glucose tolerance assessment in normal C57BL/6 mice (Example 5); assay type: in vivo; conditions: 3 nmol/kg s.c. single dose, 24 h after administration
Outline: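 Normal C57BL/6 mice given a single dose, fasted 12 h starting 12 h post-dose, then challenged with 2 g/kg glucose i.p. Tail-vein glucose measured at baseline and 15, 30, 60, 90 min. AUC0~90min calculated from the glucose–time curve per dose group.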

[2] = Glucose tolerance assessment in normal C57BL/6 mice (Example 4); assay type: in vivo; conditions: 3 nmol/kg s.c. single dose, 24 h after administration
Outline: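 Twelve hours after a single administration, mice were fasted 12 h and then given 2 g/kg glucose i.p. Tail-vein blood glucose was measured at baseline and at 15, 30, 60 and 90 min. AUC0–90min was calculated per dose group at 24 h post-dose.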

[3] = Pharmacokinetic study in rats, single subcutaneous injection; conditions: male, Sprague Dawley, in vivo, sc, rat, 50 nmol/kg single subcutaneous injection, plasma
Procedure: The pharmacokinetic study of each polypeptide compound prepared in Example 1 was conducted using male Sprague Dawley rats. There were 3 male rats in each group. […] The dose was 50 nmol/kg, and a single subcutaneous injection was given (see Table 3 for specific peptide compounds). After administration, plasma was collected on the specified days and time points, and the concentration of each peptide compound in the plasma was detected by LC-MS/MS method. The pharmacokinetic parameters were obtained based on the concentration data, which were used to describe the pharmacokinetic properties of the peptide in rats after subcutaneous injection. Table 3: Summary of pharmacokinetic parameters of some triple-target peptides in rats

[4] = 15 min after 2 g/kg glucose i.p.
[5] = 30 min after 2 g/kg glucose i.p.
[6] = 60 min after 2 g/kg glucose i.p.
[7] = 90 min after 2 g/kg glucose i.p.
[8] = basal before 2 g/kg glucose i.p.
[9] = blood glucose AUC, 2 g/kg glucose i.p.

Compound | Blood glucose level (mM) 15 min [1, 4] [mM] | Blood glucose level (mM) 30 min [1, 5] [mM] | Blood glucose level (mM) 60 min [1, 6] [mM] | Blood glucose level (mM) 90 min [1, 7] [mM] | Blood glucose level (mM) 0 min [1, 8] [mM] | AUC0-90 min [1, 9] | Blood glucose level (mM) 15 min [2, 4] [mM] | Blood glucose level (mM) 30 min [2, 5] [mM] | Blood glucose level (mM) 60 min [2, 6] [mM] | Blood glucose level (mM) 90 min [2, 7] [mM] | Blood glucose level (mM) 0 min [2, 8] [mM] | AUC0-90 min [2, 9] | AUC(0-inf) [3] [ng·h/mL] | AUC(0-t) [3] [ng·h/mL] | Cmax [3] [ng/mL] | half-life ([3]; read-out: T1/2 (converted)) [h] | Tmax ([3]; read-out: Tmax) [h]
CC[C@H](C)[C@H](NC(=O)[C@H](Cc1ccccc1)NC(=O)[C@H](C)NC(=O)[C@H](CCCNC(=N)N)NC(=O)[C@H](CCC(N)=O)NC(=O)[C@H](CCCNC(=N)N)NC(=O)[C@H](CCCCNC(=O)COCCOCCNC(=O)CC[C@H](NC(=O)CCCCCCCCCCCCCCCCCCC(=O)O)C(=O)O)NC(=O)[C@H](CCC(=O)O)NC(=O)[C@H](CC(=O)O)NC(=O)[C@H](CC(C)C)NC(=O)[C@H](CC(C)C)NC(=O)[C@@H](NC(=O)[C@H](CO)NC(=O)[C@H](Cc1ccc(O)cc1)NC(=O)[C@H](CC(=O)O)NC(=O)[C@H](CO)NC(=O)[C@@H](NC(=O)[C@](C)(Cc1ccccc1F)NC(=O)[C@@H](NC(=O)CNC(=O)[C@H](CCC(N)=O)NC(=O)C(C)(C)NC(=O)[C@@H](N)Cc1ccc(O)cc1)[C@@H](C)O)[C@@H](C)O)[C@@H](C)CC)C(=O)N[C@@H](CCC(=O)O)C(=O)N[C@@H](Cc1ccc(O)cc1)C(=O)N[C@@H](CC(C)C)C(=O)N[C@@H](CC(C)C)C(=O)N[C@@H](C)C(=O)NCC(=O)NCC(=O)N1CCC[C@H]1C(=O)N[C@@H](CO)C(=O)N[C@@H](CO)C(=O)NCC(=O)N[C@@H](C)C(=O)N1CCC[C@H]1C(=O)N1CCC[C@H]1C(=O)N1CCC[C@H]1C(=O)N[C@@H](CO)C(=O)O [HEC-PT86] | 13.2 ± 1.4 | 10.3 ± 1.9 | 8.8 ± 1.0 | 7.0 ± 0.8 | 3.9 ± 0.2 | 827.3±70.3^a |  |  |  |  |  |  |  |  |  |  | 
CC[C@H](C)[C@H](NC(=O)[C@H](Cc1ccccc1)NC(=O)[C@H](CCC(=O)O)NC(=O)[C@H](CCCNC(=N)N)NC(=O)[C@H](CCC(N)=O)NC(=O)[C@H](CCCNC(=N)N)NC(=O)[C@H](CCCCNC(=O)COCCOCCNC(=O)CC[C@H](NC(=O)CCCCCCCCCCCCCCCCC(=O)O)C(=O)O)NC(=O)[C@H](CCC(=O)O)NC(=O)[C@H](CC(=O)O)NC(=O)[C@H](CC(C)C)NC(=O)[C@H](CC(C)C)NC(=O)[C@@H](NC(=O)[C@H](CO)NC(=O)[C@H](Cc1ccc(O)cc1)NC(=O)[C@H](CC(=O)O)NC(=O)[C@H](CO)NC(=O)[C@@H](NC(=O)[C@](C)(Cc1ccccc1F)NC(=O)[C@@H](NC(=O)CNC(=O)[C@H](Cc1c[nH]cn1)NC(=O)C(C)(C)NC(=O)[C@@H](N)Cc1ccc(O)cc1)[C@@H](C)O)[C@@H](C)O)[C@@H](C)CC)C(=O)N[C@@H](CCC(=O)O)C(=O)N[C@@H](Cc1c[nH]c2ccccc12)C(=O)N[C@@H](CC(C)C)C(=O)N[C@@H](CC(C)C)C(=O)N[C@@H](C)C(=O)NCC(=O)NCC(=O)N1CCC[C@H]1C(=O)N[C@@H](CO)C(=O)N[C@@H](CO)C(=O)NCC(=O)N[C@@H](C)C(=O)N1CCC[C@H]1C(=O)N1CCC[C@H]1C(=O)N1CCC[C@H]1C(=O)N[C@@H](CO)C(=O)O [HEC-PT77] |  |  |  |  |  |  | 12.6 ± 3.3 | 9.6 ± 3.4 | 8.5 ± 2.7 | 6.9 ± 1.9 | 4.0 ± 0.5 | 776.9±227.6^a | 22200 ± 3840 | 22000 ± 3870 | 596 ± 213 | 11 ± 1.6 | 15 ± 11
